The results in this text go back to US5510331A, “Antihypertensive peptides” (Roussel UCLAF, priority 1990, dated 1996).

Where a SMILES comes first, the peptide text is derived from it. Bridges are numbered along the chain shown (N, C = ends). [ ]: non-standard residue; d: D form. d2Nal = N[C@H](Cc1ccc2ccccc2c1)C(=O)O; Nle = CCCC[C@H](N)C(=O)O

The target of the test is endotheline receptor. Briefly: Activity on the endotheline receptor: displacement of 125I endotheline from rat brain membrane preparation. It is filed as binding. The following applies: membrane preparation from rat posterior cortex and brain, 25° C., 60 minutes, 7 concentrations, read-out: IC50 (50% inhibiting concentration; concentration necessary to displace 50% of the specific radioactivity fixed on the receptor). As to the method: A membrane preparation was made from rat posterior cortex and brain and the tissue was ground with a POLYTRON in a 50 mM Tris buffer pH=7.4. After 30 minutes at 25° C. (W.B.), the homogenate was centrifuged at 30,000 g for 15 minutes (2 centrifugations with intermediate taking up in the Tris buffer pH 7.4). The deposits were suspended in an incubation buffer (Tris 25 mM, pepstatine A 5 microg/ml, aprotinine 3 microg/ml, PMSF 0.1 mM, EDTA 3 mM, EGTA 1 mM pH 7.4). 2 ml aliquots were distributed in hemolysis tubes and ^125 I endotheline (approximately 50,000 dpm/tube) and the product to be studied were added. The product was first tested at 3×10^-5 M in triplicate. When the product tested displaced more than 50% of radioactivity linked specifically to the receptor, it was tested again in a range of 7 concentrations to determine the concentration which inhibited the radioactivity linked specifically to the receptor by 50%. In this way, the 50% inhibiting concentration was determined.
The non-specific bond was determined by the addition of endotheline at 10^-6 M (in triplicate) and the deposits were incubated at 25° C. for 60 minutes, put in a water-bath at 0° C. for 5 minutes, filtered under reduced pressure and rinsed with a Tris buffer 7.4 pH. The radioactivity was counted in the presence of scintillating Triton. The result was expressed directly as a 50% inhibiting concentration (IC50), or the concentration of product studied expressed in nM necessary to displace 50% of the specific radioactivity fixed on the receptor studied.
On the technique in general: Loss of bound radioactivity is the signal in a displacement assay; it reports binding, not function.

With `CC[C@H](C)[C@H](NC(=O)[C@H](CC(=O)O)NC(=O)[C@H](CC(C)C)NC(=O)[C@H](Cc1c[nH]cn1)NC(=O)[C@@H]1CSSC[C@H](N)C(=O)N[C@@H](CO)C(=O)N[C@H]2CSSC[C@H](NC(=O)[C@H](CCC(=O)O)NC(=O)[C@H](CCCCN)NC(=O)[C@H](CC(=O)O)NC(=O)CNC(=O)[C@H](CC(C)C)NC(=O)[C@H](CO)NC(=O)[C@H](CO)NC2=O)C(=O)N[C@@H](C(C)C)C(=O)N[C@@H](Cc2ccc(O)cc2)C(=O)N[C@@H](Cc2ccccc2)C(=O)N1)C(=O)N[C@H](C(=O)N[C@@H](Cc1c[nH]c2ccccc12)C(=O)O)[C@@H](C)CC` [Example 2, (Gly-7)--ET1 derivative] (H-CSCSSLGDKECVYFCHLDIIW-OH; disulfide 1-15, 3-11), the IC50 amounted to 1.4 nM.
As for `CCCC[C@@H]1NC(=O)[C@H](CC(C)C)NC(=O)[C@H](CO)NC(=O)[C@H](CO)NC(=O)[C@@H]2CSSC[C@H](NC(=O)[C@H](CCC(=O)O)NC(=O)[C@H](CCCCN)NC(=O)[C@H](CC(=O)O)NC1=O)C(=O)N[C@@H](C(C)C)C(=O)N[C@@H](Cc1ccc(O)cc1)C(=O)N[C@@H](Cc1ccccc1)C(=O)N[C@H](C(=O)N[C@@H](Cc1c[nH]cn1)C(=O)N[C@@H](CC(C)C)C(=O)N[C@@H](CC(=O)O)C(=O)N[C@H](C(=O)N[C@H](C(=O)N[C@H](Cc1ccc3ccccc3c1)C(=O)O)[C@@H](C)CC)[C@@H](C)CC)CSSC[C@H](N)C(=O)N[C@@H](CO)C(=O)N2` [Example 3, (Nle-7)-DiNaphtylalanine-21-ET1 derivative] (H-CSCSSL[Nle]DKECVYFCHLDII[d2Nal]-OH; disulfide 1-15, 3-11), the IC50 was 2 nM.
For `CCCC[C@@H]1NC(=O)[C@H](CC(C)C)NC(=O)[C@H](CO)NC(=O)[C@H](CO)NC(=O)[C@@H](N)CSSC[C@@H](C(=O)N[C@@H](Cc2c[nH]cn2)C(=O)N[C@@H](CC(C)C)C(=O)N[C@@H](CC(=O)O)C(=O)N[C@H](C(=O)N[C@H](C(=O)N[C@@H](Cc2c[nH]c3ccccc23)C(=O)O)[C@@H](C)CC)[C@@H](C)CC)NC(=O)[C@H](CCC(=O)O)NC(=O)[C@H](CCCCN)NC(=O)[C@H](CC(=O)O)NC1=O` [Example 7] (H-CSSL[Nle]DKECHLDIIW-OH; disulfide 1-9), the IC50 turned out to be 3520 nM.
In the case of `CCCC[C@H](NC(=O)[C@H](CC(C)C)NC(=O)[C@H](CO)NC(=O)[C@H](CO)NC(=O)[C@@H](N)CS)C(=O)N[C@@H](CC(=O)O)C(=O)N[C@@H](CCCCN)C(=O)N[C@@H](CCC(=O)O)C(=O)N[C@@H](CS)C(=O)N[C@@H](Cc1c[nH]cn1)C(=O)N[C@@H](CC(C)C)C(=O)N[C@@H](CC(=O)O)C(=O)N[C@H](C(=O)N[C@H](C(=O)N[C@@H](Cc1c[nH]c2ccccc12)C(=O)O)[C@@H](C)CC)[C@@H](C)CC` [Example 8] (H-CSSL[Nle]DKECHLDIIW-OH), the IC50 was 5350 nM.
The figure for `CC[C@H](C)[C@H](NC(=O)[C@H](CC(=O)O)NC(=O)[C@H](CC(C)C)NC(=O)[C@H](Cc1c[nH]cn1)NC(=O)[C@@H]1CSSC[C@H](N)C(=O)N[C@@H](CC(C)C)C(=O)N[C@@H](C)C(=O)NCC(=O)N2CCC[C@H]2C(=O)N[C@@H](CC(N)=O)C(=O)NCC(=O)N[C@@H](Cc2ccc(O)cc2)C(=O)N1)C(=O)N[C@H](C(=O)N[C@@H](Cc1c[nH]c2ccccc12)C(=O)O)[C@@H](C)CC` [Example 9] (H-CLAGPNGYCHLDIIW-OH; disulfide 1-9) is 7500 nM; for `CC[C@H](C)[C@H](NC(=O)[C@H](CC(=O)O)NC(=O)[C@H](CC(C)C)NC(=O)[C@H](Cc1c[nH]cn1)NC(=O)[C@H](CS)NC(=O)[C@H](Cc1ccc(O)cc1)NC(=O)CNC(=O)[C@H](CC(N)=O)NC(=O)[C@@H]1CCCN1C(=O)CNC(=O)[C@H](C)NC(=O)[C@H](CC(C)C)NC(=O)[C@@H](N)CS)C(=O)N[C@H](C(=O)N[C@@H](Cc1c[nH]c2ccccc12)C(=O)O)[C@@H](C)CC` [Example 10] (H-CLAGPNGYCHLDIIW-OH) it is 620 nM.
`CC[C@H](C)[C@H](NC(=O)[C@H](CC(=O)O)NC(=O)[C@H](CC(C)C)NC(=O)[C@H](Cc1c[nH]cn1)NC(=O)[C@@H]1CSSC[C@H](N)C(=O)N[C@@H]([C@@H](C)O)C(=O)N[C@H]2CSSC[C@H](NC(=O)[C@H](CCC(=O)O)NC(=O)[C@H](CCCCN)NC(=O)[C@H](CC(=O)O)NC(=O)[C@H]([C@@H](C)O)NC(=O)[C@H](CCSC)NC(=O)[C@H](CC(=O)O)NC(=O)[C@H](CCCCN)NC2=O)C(=O)N[C@@H](C(C)C)C(=O)N[C@@H](Cc2ccc(O)cc2)C(=O)N[C@@H](Cc2ccccc2)C(=O)N1)C(=O)N[C@H](C(=O)N[C@@H](Cc1c[nH]c2ccccc12)C(=O)O)[C@@H](C)CC` [Example 11] (H-CTCKDMTDKECVYFCHLDIIW-OH; disulfide 1-15, 3-11): the IC50 is 1.3 nM.
Regarding `CCCC[C@@H]1NC(=O)[C@H](CC(C)C)NC(=O)[C@H](CO)NC(=O)[C@H](CO)NC(=O)[C@@H]2CSSC[C@H](NC(=O)[C@H](CCC(=O)O)NC(=O)[C@H](CCCCN)NC(=O)[C@H](CC(=O)O)NC1=O)C(=O)N[C@@H](C(C)C)C(=O)N[C@@H](Cc1ccc(O)cc1)C(=O)N[C@@H](Cc1ccccc1)C(=O)N[C@H](C(=O)N[C@@H](Cc1c[nH]cn1)C(=O)N[C@@H](CCC(N)=O)C(=O)N[C@@H](CC(=O)O)C(=O)N[C@H](C(=O)N[C@H](C(=O)N[C@@H](Cc1c[nH]c3ccccc13)C(=O)O)[C@@H](C)CC)[C@@H](C)CC)CSSC[C@H](N)C(=O)N[C@@H](CO)C(=O)N2` [Example 12] (H-CSCSSL[Nle]DKECVYFCHQDIIW-OH; disulfide 1-15, 3-11), the IC50 came out at 2.3 nM.
The figure for `CC[C@H](C)[C@H](NC(=O)[C@H](CC(=O)O)NC(=O)[C@H](CCC(N)=O)NC(=O)[C@H](Cc1c[nH]cn1)NC(=O)[C@@H]1CSSC[C@H](N)C(=O)N[C@@H](CO)C(=O)N[C@H]2CSSC[C@H](NC(=O)[C@H](CCC(=O)O)NC(=O)[C@H](CCCCN)NC(=O)[C@H](CC(=O)O)NC(=O)[C@H](CCSC)NC(=O)[C@H](CC(C)C)NC(=O)[C@H](CO)NC(=O)[C@H](CO)NC2=O)C(=O)N[C@@H](CC(C)C)C(=O)N[C@@H](Cc2ccc(O)cc2)C(=O)N[C@@H](Cc2ccccc2)C(=O)N1)C(=O)N[C@H](C(=O)N[C@@H](Cc1c[nH]c2ccccc12)C(=O)O)[C@@H](C)CC` [Example 13] (H-CSCSSLMDKECLYFCHQDIIW-OH; disulfide 1-15, 3-11) is 3.5 nM; for `CC[C@H](C)[C@H](NC(=O)[C@H](CC(=O)O)NC(=O)[C@H](CCCNC(=N)N)NC(=O)[C@H](Cc1c[nH]cn1)NC(=O)[C@@H]1CSSC[C@H](N)C(=O)N[C@@H]([C@@H](C)O)C(=O)N[C@H]2CSSC[C@H](NC(=O)[C@H](CCC(=O)O)NC(=O)[C@H](CCCCN)NC(=O)[C@H](CC(=O)O)NC(=O)[C@H]([C@@H](C)O)NC(=O)[C@H](CCSC)NC(=O)[C@H](CC(=O)O)NC(=O)[C@H](CCCCN)NC2=O)C(=O)N[C@@H](CC(C)C)C(=O)N[C@@H](Cc2ccc(O)cc2)C(=O)N[C@@H](Cc2ccccc2)C(=O)N1)C(=O)N[C@H](C(=O)N[C@@H](Cc1c[nH]c2ccccc12)C(=O)O)[C@@H](C)CC` [Example 15] (H-CTCKDMTDKECLYFCHRDIIW-OH; disulfide 1-15, 3-11 (inferred); N-terminus assumed) it is 1.8 nM.
